Reference: patent US12428401B2, “Salt of an aminopyridine derivative compound, a crystalline form thereof, and a process for preparing the same” (Yuhan Corporation, priority 2017, dated 2025)
Values joined by “and” are separate entries in the source; they are usually repeats but may differ in a detail not shown here. Equal values may be shown once. Where a name gives a salt, the structure may show the parent alone. Read-outs that look alike come from different tables or passages of the source.

Columns and labels:
[1] = Pharmacokinetic comparison test in rats treated with esomeprazole; format: in vivo, rats (SD rats)
Text: (§1) Specifically, the maximum plasma concentration (Cmax) and the area under the plasma concentration curve (AUClast) in the normal rats and the rats treated with esomeprazole were compared to evaluate the absorption of the drugs in the actual animals.
(§2) In order to compare the pharmacokinetic parameters, 8-week old male rats (SD rats) with a body weight of about 250 g were used as test animals.
A comparison of the pharmacokinetic parameters (i.e., the maximum plasma concentration and the area under the plasma concentration curve) calculated therefrom are shown in Table 7 and FIGS. 12 and 13.

[2] = Pharmacokinetic comparison test in normal rats; format: in vivo, rats (SD rats)
Text: as §1, §2

[3] = Pharmacokinetic comparison test in beagle dogs; format: in vivo
Text: A comparison of the pharmacokinetic parameters (i.e., the maximum plasma concentration and the area under the plasma concentration curve) calculated therefrom are shown in Table 8 and FIG. 14.

[4] = accelerated conditions; for Content / Purity: HPLC; for Content Change / Purity Change / Water content Change: start to 6 months
Protocol: The five compounds were tested for stability under stress conditions and accelerated conditions.

[5] = Stability test under stress conditions (PXRD, DSC, appearance, HPLC); details: for DSC onset / Water content / Content / Purity / Appearance (color) / Content Change / Purity Change / Water content Change: stress conditions; for Content / Purity: HPLC; for Content Change / Purity Change / Water content Change: start to 4 weeks
[6] = Rats treated with esomeprazole (i.v. 5 mg/2 mL/kg for 3 days), oral 30 mg/5 ml/kg
[7] = esomeprazole-treated vs normal rats, listed as Comparative Example 1

## C=CC(=O)Nc1cc(Nc2nccc(-n3cc(CN(C)C)c(-c4ccccc4)n3)n2)c(OC)cc1N1CCOCC1 [C. Ex. 1, N-(5-(4-(4-((dimethylamino)methyl)-3-phenyl-1H-pyrazol-1-yl)pyrimidine-2-ylamino)-4-methoxy-2-morpholinophenyl)acrylamide]
[1]; [6]
  Area under the plasma concentration curve (AUClast): 2636.7 ng·h/mL
  Maximum plasma concentration (Cmax): 223.0 ng/mL
[1]; [7]
  Area under the plasma concentration curve reduced in the esomeprazole-treated rats as compared with the normal rats: 63.8%
  Maximum plasma concentration reduced in the esomeprazole-treated rats as compared with the normal rats: 69.3%
[1]; rats treated with esomeprazole
  Area under the plasma concentration curve lower than that of the mesylate salt form (Example 1): 49.4%
  Maximum plasma concentration lower than that of the mesylate salt form (Example 1): 47.8%
[2]; normal rats
  Area under the plasma concentration curve lower than that of the mesylate salt form (Example 1): 10.4%
  Maximum plasma concentration lower than that of the mesylate salt form (Example 1): 11.0%
[3]
  Area under the plasma concentration curve lower than that of the mesylate salt form (Example 1): 50.4%
  Maximum plasma concentration lower than that of the mesylate salt form (Example 1): 40.1%

## C=CC(=O)Nc1cc(Nc2nccc(-n3cc(CN(C)C)c(-c4ccccc4)n3)n2)c(OC)cc1N1CCOCC1.Cl [C. Ex. 2, Hydrochloride Salt of N-(5-(4-(4-((dimethylamino)methyl)-3-phenyl-1H-pyrazol-1-yl)pyrimidine-2-ylamino)-4-methoxy-2-morpholinophenyl)acrylamide]
[4]; 1 mo
  Appearance (color): Y
  DSC onset: 272 °C
  Water content: 0.98%
  Content: 97.0%
  Purity: 99.0%
[4]; 3 mos
  Appearance (color): Y
  DSC onset: 271 °C
  Water content: 1.47%
  Content: 98.3%
  Purity: 98.9%
[4]; 6 mos
  DSC onset: 271 °C
  Water content: 1.28%
  Content: 97.6%
  Purity: 98.8%
[4]; Start
  Purity: 99.0%
  Appearance (color): Y
  Water content: 0.86%
[4]
  Content Change: +0.2%
  Purity Change: −0.2%
  Water content Change: +0.42%
[5]; 2 weeks
  DSC onset: 269 °C
  Water content: 1.23%
  Content: 96.2%
  Purity: 99.1%
[5]; 4 weeks
  DSC onset: 269 °C
  Water content: 1.44%
  Content: 95.2%
  Purity: 99.1%
[5]; Start
  Content: 97.4%
  Purity: 99.0%
  Appearance (color): Yellow
  DSC onset: 267 °C
  Water content: 0.86%
[5]
  Content Change: −2.2%
  Purity Change: +0.1%
  Water content Change: +0.58%

## C=CC(=O)Nc1cc(Nc2nccc(-n3cc(CN(C)C)c(-c4ccccc4)n3)n2)c(OC)cc1N1CCOCC1.O=C(O)CC(O)(CC(=O)O)C(=O)O [C. Ex. 3, Citrate Salt of N-(5-(4-(4-((dimethylamino)methyl)-3-phenyl-1H-pyrazol-1-yl)pyrimidine-2-ylamino)-4-methoxy-2-morpholinophenyl)acrylamide]
[4]; 1 mo
  Water content: 0.83%
  Content: 100.5%
  Purity: 98.9%
[4]; 3 mos
  DSC onset: 180 °C
  Water content: 3.05%
  Content: 101.0%
  Purity: 98.9%
[4]; 6 mos
  DSC onset: 183 °C
  Water content: 3.50%
  Content: 98.7%
  Purity: 97.7%
[4]; Start
  Content: 100.0%
  Purity: 99.2%
  Water content: 0.65%
[4]
  Content Change: −1.3%
  Purity Change: −1.5%
  Water content Change: +2.85%
[5]; 2 weeks
  DSC onset: 182 °C
  Water content: 0.62%
  Content: 98.9%
  Purity: 98.8%
[5]; 4 weeks
  DSC onset: 181 °C
  Water content: 1.47%
  Content: 98.6%
  Purity: 98.7%
[5]; Start
  Content: 100.0%
  Purity: 99.2%
  DSC onset: 182 °C
  Water content: 0.65%
[5]
  Content Change: −1.4%
  Purity Change: −0.5%
  Water content Change: +0.82%

## C=CC(=O)Nc1cc(Nc2nccc(-n3cc(CN(C)C)c(-c4ccccc4)n3)n2)c(OC)cc1N1CCOCC1.CCS(=O)(=O)O [C. Ex. 4, Esilate Salt of N-(5-(4-(4-((dimethylamino)methyl)-3-phenyl-1H-pyrazol-1-yl)pyrimidine-2-ylamino)-4-methoxy-2-morpholinophenyl)acrylamide]
[4]; 1 mo
  DSC onset: 222 °C
  Water content: 2.48%
  Content: 96.1%
  Purity: 99.1%
[4]; 3 mos
  Water content: 2.98%
  Content: 95.1%
  Purity: 99.0%
[4]; 6 mos
  DSC onset: 218 °C
  Water content: 3.17%
  Content: 91.4%
  Purity: 98.4%
[4]; Start
  Purity: 99.5%
  Appearance (color): Y
[4]
  Content Change: −5.1%
  Purity Change: −1.1%
  Water content Change: +2.02%
[5]; 2 weeks
  DSC onset: 222, ° C. and 227 °C
  Water content: 1.37%
  Content: 94.7%
  Purity: 99.0%
[5]; 4 weeks
  Appearance (color): Violet
  DSC onset: 172, ° C. and 193, ° C. and 219 °C
  Water content: 3.81%
  Content: 89.5%
  Purity: 98.9%
[5]; Start
  Content: 96.5%
  Appearance (color): Yellow
  DSC onset: 223 °C
  Water content: 1.15%
[5]
  Content Change: −7%
  Purity Change: −0.6%
  Water content Change: +2.03%

## C=CC(=O)Nc1cc(Nc2nccc(-n3cc(CN(C)C)c(-c4ccccc4)n3)n2)c(OC)cc1N1CCOCC1 [Ex. 1, mesylate salt of N-(5-(4-(4-((dimethylamino)methyl)-3-phenyl-1H-pyrazol-1-yl)pyrimidine-2-ylamino)-4-methoxy-2-morpholinophenyl)acrylamide]
[4]; 1 mo
  DSC onset: 214 °C
  Water content: 2.73%
  Content: 98.9%
  Purity: 99.3%
[4]; 3 mos
  DSC onset: 214 °C
  Water content: 3.19%
  Content: 98.9%
  Purity: 99.3%
[4]; 6 mos
  DSC onset: 214 °C
  Water content: 3.01%
  Content: 99.1%
  Purity: 99.3%
[4]; Start
  Content: 98.8%
  Purity: 99.2%
  DSC onset: 214 °C
  Water content: 2.48%
[4]
  Content Change: +0.3%
  Purity Change: +0.1%
  Water content Change: +0.53%
[5]; stress and accelerated conditions together, purity, water content, PXRD pattern, appearance
  Stability (overall conclusion of the stability test): excellent in stability
[5]; 2 weeks
  Appearance (color): White
  DSC onset: 214 °C
  Water content: 2.71%
  Content: 97.7%
  Purity: 99.3%
[5]; 4 weeks
  Appearance (color): White
  DSC onset: 214 °C
  Water content: 2.70%
  Content: 98.9%
  Purity: 99.3%
[5]; Start
  Content: 98.8%
  Purity: 99.2%
  Appearance (color): White
  DSC onset: 214 °C
  Water content: 2.48%
[5]
  Content Change: +0.1%
  Purity Change: +0.1%
  Water content Change: +0.22%
[1]; male, SD, rat, plasma, po, 30 mg/kg, Rats treated with esomeprazole (i.v. 5 mg/2 mL/kg for 3 days), oral 30 mg/5 ml/kg, read-out: Area under the plasma concentration curve (AUClast)
  AUC(0-t): 5210 ng·h/mL
[1]; male, SD, rat, plasma, po, 30 mg/kg, Rats treated with esomeprazole (i.v. 5 mg/2 mL/kg for 3 days), oral 30 mg/5 ml/kg, read-out: Maximum plasma concentration (Cmax)
  Cmax: 428 ng/mL
[2]; male, SD, rat, plasma, 30 mg/kg, Normal rats, oral 30 mg/5 ml/kg in 0.5% methylcellulose, read-out: Area under the plasma concentration curve (AUClast)
  AUC(0-t): 8140 ng·h/mL
[2]; male, SD, rat, plasma, 30 mg/kg, Normal rats, oral 30 mg/5 ml/kg in 0.5% methylcellulose, read-out: Maximum plasma concentration (Cmax)
  Cmax: 816 ng/mL
[3]; male, dog, plasma, 5 mg/kg, oral 5 mg/2 mL/kg in 0.5% methylcellulose, read-out: Area under the plasma concentration curve (AUClast)
  AUC(0-t): 812 ng·h/mL
[3]; male, dog, plasma, 5 mg/kg, oral 5 mg/2 mL/kg in 0.5% methylcellulose, read-out: Maximum plasma concentration (Cmax)
  Cmax: 135 ng/mL
